This note sets out measurements from BindingDB's records for doi:10.1016/j.bmcl.2008.02.026 (Irbm/Merck Research Laboratories, 2008).

The structures appear in SMILES notation.

The test concerns the target T1, Histone deacetylase 6 (Homo sapiens, UniProt Q9UBN7).
T1 sequence (Q9UBN7 whole entry): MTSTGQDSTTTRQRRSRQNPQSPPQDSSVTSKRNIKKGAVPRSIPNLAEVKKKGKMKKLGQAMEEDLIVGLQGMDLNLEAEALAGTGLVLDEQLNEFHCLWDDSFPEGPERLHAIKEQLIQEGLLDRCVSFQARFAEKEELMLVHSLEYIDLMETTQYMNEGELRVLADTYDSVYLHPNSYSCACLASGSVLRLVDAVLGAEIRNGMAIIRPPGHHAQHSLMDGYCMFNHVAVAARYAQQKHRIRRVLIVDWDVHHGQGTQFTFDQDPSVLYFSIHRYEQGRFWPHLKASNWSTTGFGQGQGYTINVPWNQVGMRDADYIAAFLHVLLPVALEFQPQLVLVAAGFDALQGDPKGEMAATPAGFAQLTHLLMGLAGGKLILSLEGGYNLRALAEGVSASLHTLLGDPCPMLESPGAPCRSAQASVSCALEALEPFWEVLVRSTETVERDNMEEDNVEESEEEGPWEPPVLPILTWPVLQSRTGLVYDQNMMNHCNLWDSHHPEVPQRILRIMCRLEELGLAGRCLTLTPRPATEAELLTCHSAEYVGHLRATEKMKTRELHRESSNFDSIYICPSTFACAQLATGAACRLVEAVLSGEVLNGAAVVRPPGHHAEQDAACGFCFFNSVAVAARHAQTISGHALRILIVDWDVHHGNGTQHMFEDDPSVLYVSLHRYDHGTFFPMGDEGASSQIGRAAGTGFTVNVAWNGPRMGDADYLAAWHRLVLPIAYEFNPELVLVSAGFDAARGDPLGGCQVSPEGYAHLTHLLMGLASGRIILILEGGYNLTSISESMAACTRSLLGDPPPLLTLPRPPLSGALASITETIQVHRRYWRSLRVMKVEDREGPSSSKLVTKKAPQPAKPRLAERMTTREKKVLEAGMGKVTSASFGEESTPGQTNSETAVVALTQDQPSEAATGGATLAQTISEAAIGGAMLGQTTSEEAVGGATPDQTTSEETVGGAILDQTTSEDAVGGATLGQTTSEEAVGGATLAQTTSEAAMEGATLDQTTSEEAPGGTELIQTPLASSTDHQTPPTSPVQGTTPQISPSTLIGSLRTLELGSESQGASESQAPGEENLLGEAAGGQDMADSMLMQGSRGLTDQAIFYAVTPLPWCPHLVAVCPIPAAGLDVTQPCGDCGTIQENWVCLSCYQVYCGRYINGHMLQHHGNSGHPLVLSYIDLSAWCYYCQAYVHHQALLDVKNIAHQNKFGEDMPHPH
The test can be described thus: HDAC Activity Assay. The conditions noted are these: 25 °C. As to the method:
The Fluor-de-Lys HDAC activity assay kit (Biomol) was used. Purified recombinant HDAC enzyme was incubated with Fluor-de-Lys substrate in the presence of test compounds. Fluor-de-Lys Developer was then added, and the mixture was incubated for another 10 min at room temperature. Fluorescence was measured using a fluorescent plate reader, with excitation 360 nm and emission 460 nm.

With `NC(=O)c1ccc(C(=O)C(F)(F)F)cn1` [5-(2,2,2-trifluoroacetyl)pyridine-2-carboxamide], half-maximal inhibition (IC50) required 4.2 µM.
